Experimental findings from patent publication US20260356851A1, “TRICYCLIC COMPOUNDS AND USES THEREOF” (HUTCHMED LIMITED, priority 2023, published 2026) are described below.

Common to all, as to type: cell-based
Test [1] deals with T1, pERK1/2 (Thr202/Tyr204), NCI-1H358 (KRAS G12C) (Homo sapiens, UniProt P01116, G12C).
T1 construct: pERK1/2 HTRF read-out
Nature of the test: Assay of intracellular pERK1/2 (Thr202/Tyr204) phosphorylation in NCI-H358 cells (KRAS G12C). Particulars: pERK1/2, 2 days, read-out: NCI-H358 (KRAS G12C) IC50. The method in brief: (§1)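 Cells (10000-12000/well) exposed to 3-fold compound dilutions for 2 days at 37 °C, then lysed; pERK1/2 (Thr202/Tyr204) measured by HTRF with d2 and cryptate antibodies, 665/615 nm ratio.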

Test [2] has as its target T2, pERK1/2 (Thr202/Tyr204), PANC-1 (KRAS G121D) (Homo sapiens, UniProt P01116, G12D).
T2 construct: pERK1/2 HTRF read-out
Kind of test: Assay of intracellular pERK1/2 (Thr202/Tyr204) phosphorylation in PANC-1 cells (KRAS G12D). Particulars: pERK1/2, 2 days, read-out: PANC-1 (KRAS G12D) IC50. The method in brief:
as §1

In test [3] the target is T3, pERK1/2 (Thr202/Tyr204), NCI-1H441 (KRAS G12V) (Homo sapiens, UniProt P01116, G12V).
T3 construct: pERK1/2 HTRF read-out
Nature of the test: Assay of intracellular pERK1/2 (Thr202/Tyr204) phosphorylation in NCI-H441 cells (KRAS G12V). Particulars: pERK1/2, 2 days, read-out: NCI-H441 (KRAS G12V) IC50. Put shortly:
as §1

T1 sequence (P01116 1-188 isoform P01116-2 G12C): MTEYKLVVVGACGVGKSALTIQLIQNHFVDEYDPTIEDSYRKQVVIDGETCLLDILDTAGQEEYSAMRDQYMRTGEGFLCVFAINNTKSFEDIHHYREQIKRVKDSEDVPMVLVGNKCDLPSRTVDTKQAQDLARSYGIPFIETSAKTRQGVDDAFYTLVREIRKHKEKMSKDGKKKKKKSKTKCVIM
T3 sequence (P01116 1-188 isoform P01116-2 G12V): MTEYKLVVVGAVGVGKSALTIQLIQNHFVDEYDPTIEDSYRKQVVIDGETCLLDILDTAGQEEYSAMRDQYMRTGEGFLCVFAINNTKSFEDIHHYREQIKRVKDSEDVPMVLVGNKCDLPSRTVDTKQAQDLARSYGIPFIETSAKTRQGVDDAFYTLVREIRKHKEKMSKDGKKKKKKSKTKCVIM
T2 sequence (P01116 1-188 isoform P01116-2 G12D): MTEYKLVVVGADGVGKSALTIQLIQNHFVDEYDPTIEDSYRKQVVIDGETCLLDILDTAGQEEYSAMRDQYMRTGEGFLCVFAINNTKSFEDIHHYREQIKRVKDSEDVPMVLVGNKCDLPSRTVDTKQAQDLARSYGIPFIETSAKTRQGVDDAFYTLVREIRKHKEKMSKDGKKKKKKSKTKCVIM

On to `[2H]C([2H])(Oc1nc2c3c(nc(-c4cc(N)cc(C)c4C(F)(F)F)c(F)c3n1)OCCN2C(C)c1cccnc1N)[C@@H]1C[C@@H](F)CN1C([2H])([2H])[2H]` (single isomer, unassigned) [Compound 132, 3-((R or S)-1-(5-(5-amino-3-methyl-2-(trifluoromethyl)phenyl)-4-fluoro-2-(((2S,4R)-4-fluoro-1-(methyl-d3)pyrrolidin-2-yl)methoxy-d2)-8,9-dihydro-10H-7-oxa-1,3,6,10-tetraazacyclohepta[de]naphthalen-10-yl)ethyl)pyridin-2-amine], for which the values for the IC50 in test [1], in test [2] and in test [3] were 0.4 nM, 14 nM and 1 nM, respectively.
As to `[2H]C([2H])(Oc1nc2c3c(nc(-c4cc(N)cc(C)c4C(F)(F)F)c(F)c3n1)OCCN2C(C)c1cccnc1N)[C@@H]1C[C@@H](F)CN1C([2H])([2H])[2H]` (single isomer, unassigned) [Compound 133, 3-((R or S)-1-(5-(5-amino-3-methyl-2-(trifluoromethyl)phenyl)-4-fluoro-2-(((2S,4R)-4-fluoro-1-(methyl-d3)pyrrolidin-2-yl)methoxy-d2)-8,9-dihydro-10H-7-oxa-1,3,6,10-tetraazacyclohepta[de]naphthalen-10-yl)ethyl)pyridin-2-amine], the IC50 in test [1] is 3 nM; in test [2] it was more than 100 nM; in test [3], 10 nM.
For `Cc1c(F)c(N)cc(-c2nc3c4c(nc(OC[C@@]56CCCN5C[C@H](F)C6)nc4c2F)N([C@H](C)c2cccnc2N)CCO3)c1C(F)(F)F` (single isomer, unassigned) [Compound 137] the same measures were 0.1 nM, 0.9 nM and 0.2 nM.
For `Cc1c(F)c(N)cc(-c2nc3c4c(nc(OC[C@@]56CCCN5C[C@H](F)C6)nc4c2F)N(C(C)c2cccnc2N)CCO3)c1C(F)(F)F` (single isomer, unassigned) [Compound 138, 3-((R or S)-1-(5-(5-amino-4-fluoro-3-methyl-2-(trifluoromethyl)phenyl)-4-fluoro-2-(((2R,7aS)-2-fluorotetrahydro-1H-pyrrolizin-7a(5H)-yl)methoxy)-8,9-dihydro-10H-7-oxa-1,3,6,10-tetraazacyclohepta[de]naphthalen-10-yl)ethyl)pyridin-2-amine] the same measures were 13 nM, 30 nM and 17 nM.
As for `[2H]C([2H])(Oc1nc2c3c(nc(-c4cc(O)cc(Cl)c4C4CC4)c(F)c3n1)OCCN2[C@H](C)c1cccnc1N)[C@@H]1C[C@@H](F)CN1C([2H])([2H])[2H]` (single isomer, unassigned) [Compound 142, 3-(10-((R or S)-1-(2-aminopyridin-3-yl)ethyl)-4-fluoro-2-(((2S,4R)-4-fluoro-1-(methyl-d3)pyrrolidin-2-yl)methoxy-d2)-9,10-dihydro-8H-7-oxa-1,3,6,10-tetraazacyclohepta[de]naphthalen-5-yl)-5-chloro-4-cyclopropylphenyl], the IC50 in test [1], in test [2] and in test [3] was more than 100 nM each time.
Consider `[2H]C([2H])(Oc1nc2c3c(nc(-c4cc(O)cc(Cl)c4C4CC4)c(F)c3n1)OCCN2[C@@H](C)c1cccnc1N)[C@@H]1C[C@@H](F)CN1C([2H])([2H])[2H]` (single isomer, unassigned) [Compound 143, 3-(10-((R or S)-1-(2-aminopyridin-3-yl)ethyl)-4-fluoro-2-(((2S,4)-4-fluoro-1-(methyl-d3)pyrrolidin-2-yl)methoxy-d2)-9,10-dihydro-8H-7-oxa-1,3,6,10-tetraazacyclohepta[de]naphthalen-5-yl)-5-chloro-4-cyclopropylphenol], for which the IC50 in test [1] came to 0.5 nM; in test [2], 21 nM; in test [3], 2 nM.
With `CC(c1cccnc1N)N1CCOc2nc(-c3cc(N)c(F)cc3C(F)(F)F)c(F)c3nc(OC[C@@]45CCCN4C[C@H](F)C5)nc1c23` (single isomer, unassigned) [Compound 144, 3-((R or S)-1-(5-(5-amino-4-fluoro-2-(trifluoromethyl)phenyl)-4-fluoro-2-(((2R,7aS)-2-fluorotetrahydro-1H-pyrrolizin-7a(5H)-yl)methoxy)-8,9-dihydro-10H-7-oxa-1,3,6,10-tetraazacyclohepta[de]naphthalen-10-yl)ethyl)pyridin-2-amine], the IC50 was 0.4 nM in test [1], 17 nM in test [2] and 2 nM in test [3].
The matching figures for `CC(c1cccnc1N)N1CCOc2nc(-c3cc(N)c(F)cc3C(F)(F)F)c(F)c3nc(OC[C@@]45CCCN4C[C@H](F)C5)nc1c23` (single isomer, unassigned) [Compound 145, 3-((R or S)-1-(5-(5-amino-4-fluoro-2-(trifluoromethyl)phenyl)-4-fluoro-2-(((2R,7aS)-2-fluorotetrahydro-1H-pyrrolizin-7a(5H)-yl)methoxy)-8,9-dihydro-10H-7-oxa-1,3,6,10-tetraazacyclohepta[de]naphthalen-10-yl)ethyl)pyridin-2-amine]: 14 nM, more than 100 nM and 51 nM.
For the compound `[2H]C1([2H])CN(C(C)c2cccnc2N)c2nc(OC[C@@]34CCCN3C[C@H](F)C4)nc3c(F)c(-c4cc(N)cc(C)c4C(F)(F)F)nc(c23)O1` (single isomer, unassigned) [Compound 153, 3-((R or S)-1-(5-(5-amino-3-methyl-2-(trifluoromethyl)phenyl)-4-fluoro-2-(((2R,7aS)-2-fluorotetrahydro-1H-pyrrolizin-7a(5H)-yl)methoxy)-8,9-dihydro-10H-7-oxa-1,3,6,10-tetraazacyclohepta[de]naphthalen-10-yl-8,8-d2)ethyl)pyridin-2-amine], the IC50 in test [1] turned out to be 0.2 nM; in test [2] it was 2 nM; in test [3], 0.5 nM.
For `[2H]C1([2H])CN(C(C)c2cccnc2N)c2nc(OC[C@@]34CCCN3C[C@H](F)C4)nc3c(F)c(-c4cc(N)cc(C)c4C(F)(F)F)nc(c23)O1` (single isomer, unassigned) [Compound 154, 3-((R or S)-1-(5-(5-amino-3-methyl-2-(trifluoromethyl)phenyl)-4-fluoro-2-(((2R,7aS)-2-fluorotetrahydro-1H-pyrrolizin-7a(5H)-yl)methoxy)-8,9-dihydro-10H-7-oxa-1,3,6,10-tetraazacyclohepta[de]naphthalen-10-yl-8,8-d2)ethyl)pyridin-2-amine] the same measures were 21 nM, more than 100 nM and 31 nM.
With `Cc1cc(N)cc(-c2nc3c4c(nc(OC[C@@H]5CCCN5C5COC5)nc4c2F)N(C(C)c2cccnc2N)CCO3)c1C(F)(F)F` (single isomer, unassigned) [Compound 160, 3-((R or S)-1-(5-(5-amino-3-methyl-2-(trifluoromethyl)phenyl)-4-fluoro-2-(((S)-1-(oxetan-3-yl)pyrrolidin-2-yl)methoxy)-8,9-dihydro-10H-7-oxa-1,3,6,10-tetraazacyclohepta[de]naphthalen-10-yl)ethyl)pyridin-2-amine], the half-maximal inhibitory concentration (IC50) in test [1] is 0.5 nM; in test [2], more than 100 nM; in test [3], 2 nM.
On to `Cc1cc(N)cc(-c2nc3c4c(nc(OC[C@@H]5CCCN5C5COC5)nc4c2F)N(C(C)c2cccnc2N)CCO3)c1C(F)(F)F` (single isomer, unassigned) [Compound 161, 3-((R or S)-1-(5-(5-amino-3-methyl-2-(trifluoromethyl)phenyl)-4-fluoro-2-(((S)-1-(oxetan-3-yl)pyrrolidin-2-yl)methoxy)-8,9-dihydro-10H-7-oxa-1,3,6,10-tetraazacyclohepta[de]naphthalen-10-yl)ethyl)pyridin-2-amine], for which the IC50 was 14 nM in test [1], more than 100 nM in test [2] and 48 nM in test [3].
The matching figures for `Cc1cc(N)cc(-c2nc3c4c(nc(OC[C@@]56CCCN5C[C@H](F)C6)nc4c2F)N([C@H](C)c2cccnc2N)CCCO3)c1C(F)(F)F` (single isomer, unassigned) [Compound 166, 3-((R or S)-1-(5-(5-amino-3-methyl-2-(trifluoromethyl)phenyl)-4-fluoro-2-(((2R,7aS)-2-fluorotetrahydro-1H-pyrrolizin-7a(5H)-yl)methoxy)-9,10-dihydro-77-oxa-1,3,6,11-tetraazacycloocta[de]naphthalen-11(8H)-yl)ethyl)pyridin-2-amine]: 69 nM, more than 100 nM and more than 100 nM.
Regarding `Cc1cc(N)cc(-c2nc3c4c(nc(OC[C@@]56CCCN5C[C@H](F)C6)nc4c2F)N(C(C)c2cccnc2N)CCCO3)c1C(F)(F)F` (single isomer, unassigned) [Compound 167, 3-((R or S)-1-(5-(5-amino-3-methyl-2-(trifluoromethyl)phenyl)-4-fluoro-2-(((2R,7aS)-2-fluorotetrahydro-1H-pyrrolizin-7a(5H)-yl)methoxy)-9,10-dihydro-7-oxa-1,3,6,11-tetraazacycloocta[de]naphthalen-11(8H)-yl)ethyl)pyridin-2-amine], the IC50 in test [1], in test [2] and in test [3] was more than 100 nM throughout.
